Data as given in patent US20260167614A1, “IDENTIFICATION OF SMALL MOLECULES THAT RECRUIT AND ACTIVATE RNASE L” (UNIVERSITY OF FLORIDA RESEARCH FOUNDATION, INCORPORATED, priority 2022, published 2026).

Key:
[1] = test system: phosphorylation of extracellular signal-regulated kinase (ERK); experiment: Western blot of pERK versus ERK (RTK signaling); type: cell-based; details: CRISPR-Control sgRNA MDA-MB-231 cells
Procedure: Quantification of Protein Levels by Western Blotting. MDA-MB-231 cells were treated as described in “Cell Culture.” After treatment, the medium was removed, and the cells were washed with 1× Dulbecco's phosphate-buffered saline (DPBS). Total protein was extracted using Mammalian Protein Extraction Reagent (M-PER, Thermo Scientific) according to the manufacturer's protocol. Protein concentration was measured using a Pierce Micro BCA Protein Assay kit (Fisher Scientific). Approximately 20 μg total protein was loaded onto a Tris-glycine gel with a 5% polyacrylamide stacking layer and a 10% polyacrylamide resolving layer. The gel was run at 140 V for ˜1.5 h in 1× Running Buffer (25 mM Tris base, pH 8.3, 190 mM glycine, and 0.1% (w/v) SDS). After electrophoresis, the protein was transferred to a PVDF membrane using 1× Transfer Buffer (25 mM Tris base, pH 8.3, 190 mM glycine, and 20% (v/v) methanol). The membrane was then washed with 1×TBST (Tris-buffered saline with 0.1% (v/v) Tween 20) and blocked in a solution of 5% (w/v) milk in 1×TBST for 30 min with shaking at room temperature. The membrane was then incubated overnight at 4° C. in a solution of primary antibody diluted in 1×TBST containing 5% (w/v) milk. […]

mature miR-21 = experiment: RT-qPCR of mature miR-21 in CRISPR-Control sgRNA MDA-MB-231 cells; type: cell-based; details: 5 μM, 48 h treatment, RNase L expressed
Procedure: Two CRISPR-modified MDA-MB-231 cell lines with either a scrambled control guide RNA (“Control sgRNA”; RNase L is expressed) or with an RNase L-targeting guide RNA (“RNase L-Targeting sgRNA”; RNase L protein abundance is knocked down) were used to complete these studies.
MDA-MB-231 cells were treated with compound (0.1% DMSO final concentration) for 24 h, followed by removal of the compound-containing medium and redosing in growth medium for an additional 24 h (total treatment period of 48 h), with the exception of invasion assays in which the cells were treated overnight. For the time-course experiment, MDA-MB-231 cells were treated for the indicated lengths of time. MCF-10A cells, also used in invasion assays, were treated with compound overnight (0.1% DMSO final concentration).
RNA Isolation and Quantitative Real-Time Polymerase Chain Reaction (RT-qPCR). MDAMB-231 cells were cultured as described in “Cell Culture.” After compound treatment, total RNA was extracted using a Quick-RNA Miniprep Kit (Zymo) per the manufacturer's instructions. […] RT-qPCR was performed on a QuantStudio5™ Real-Time PCR Instrument (Applied Biosystems) using Power SYBR Green Master Mix (Applied Biosystems), and the resulting data were analyzed using the ΔΔCt method.

pre-miR-21 = experiment: In vitro C-Chem-CLIP; type: binding; details: 32P-labeled pre-miR-21; 8 at 5 μM; 7 at 1, 5, 20 or 100 μM
Procedure: Direct target occupancy was further verified using C-Chem-CLIP. In this assay, the RNA-binding module was conjugated to a diazirine cross-linking module and an alkyne handle for purification, affording Chem-CLIP probe 8 (FIG. 8A).^18 Radioactively labeled pre-miR-21 was incubated with a constant concentration of 8 and increasing amounts of 7. After cross-linking by irradiation with UV light, the amount of pre-miR-21 pulled down by 8 was measured by its radioactive signal. If the two compounds (7 and 8) share the same binding site, the amount of pre-miR-21 in the pulled down fraction is depleted.
In Vitro C-Chem-CLIP. Growth medium (RPMI 1640 medium supplemented with 300 mg/L Lglutamine & 25 mM HEPES; Corning, catalog #10-041-CV)] was inactivated by heating to 95° C. for 10 min followed by slowly cooling to room temperature. […]
Copper-catalyzed click chemistry^10 was used to click the probes in each sample to biotinazide (1265-5, Click Chemistry Tools). […] Radioactive signal from both the bound RNA on the magnetic beads and the unbound RNA in the wash solutions were measured using a Beckman […] Coulter LS6500 Liquid Scintillation Counter. The percentage pulldown by Chem-CLIP probe was calculated according to equation 2: […]

## CNC(=O)[C@H](c1ccccc1)N(C)Cc1ccc(-c2cccc(-c3sccc3NC(=O)CCOCCOCCOCCC(=O)NCCN3CCN(c4ccc5nc(-c6c(N)c7c(F)cccc7[nH]c6=O)[nH]c5c4)CC3)c2)cc1 [RiboTAC 7, (S)—N-(2-(4-(2-(4-amino-5-fluoro-2-oxo-1,2-dihydroquinolin-3-yl)-1H-benzo[d]imidazol-6-yl)piperazin-1-yl)ethyl)-3-(2-(2-(3-((2-(4′-((methyl(2-(methylamino)-2-oxo-1-phenylethyl)amino)methyl)-[1,1′-biphenyl]-3-yl)thiophen-3-yl)amino)-3-oxopropoxy)ethoxy)ethoxy)propanamide]
[1]
  effect on the levels of ERK or pERK: no effect
Mature miR-21
  reduction of mature miR-21 abundance: ~40%
pre-miR-21
  amount of pre-miR-21 cross-linked to Chem-CLIP probe 8 in competition: dose-dependently reduced the amount of pre-miR-21 cross-linked to 8
